Measurements published in the NIST ThermoML archive (doi:10.1021/je900550v).
± gives the expanded uncertainty stated by the source.

Conditions: 101.33 kPa, Liquid; for speed of sound: Pulse-echo method; for mass density: Vibrating tube method

CCCC(=O)[O-].C[NH2+]CCO [N-methyl-2-hydroxyethylammonium butanoate]
Conditions | mass density [kg/m3] | speed of sound [m/s] | viscosity [mPa·s]
278.15 K | 1052.71 ± 2.2 | 1683.5 ± 2.2 | –
278.4 K | 1052.55 ± 2.2 | 1682.5 ± 2.2 | –
278.65 K | 1052.38 ± 2.2 | 1681.5 ± 2.2 | –
278.9 K | 1052.21 ± 2.2 | 1680.6 ± 2.2 | –
279.15 K | 1052.04 ± 2.2 | 1679.6 ± 2.2 | –
279.4 K | 1051.88 ± 2.2 | 1678.7 ± 2.2 | –
279.65 K | 1051.71 ± 2.2 | 1677.7 ± 2.2 | –
279.9 K | 1051.54 ± 2.2 | 1676.8 ± 2.2 | –
280.15 K | 1051.38 ± 2.2 | 1675.8 ± 2.2 | –
280.4 K | 1051.21 ± 2.2 | 1674.8 ± 2.2 | –
280.65 K | 1051.04 ± 2.2 | 1673.9 ± 2.2 | –
280.9 K | 1050.88 ± 2.2 | 1673 ± 2.2 | –
281.15 K | 1050.71 ± 2.2 | 1672 ± 2.2 | –
281.4 K | 1050.54 ± 2.2 | 1671.1 ± 2.2 | –
281.65 K | 1050.38 ± 2.2 | 1670.1 ± 2.2 | –
281.9 K | 1050.21 ± 2.2 | 1669.2 ± 2.2 | –
282.15 K | 1050.02 ± 2.2 | 1668.4 ± 2.2 | –
282.4 K | 1049.85 ± 2.2 | 1667.4 ± 2.2 | –
282.65 K | 1049.69 ± 2.2 | 1666.6 ± 2.2 | –
282.9 K | 1049.52 ± 2.2 | 1665.7 ± 2.2 | –
283.15 K | 1049.35 ± 2.2 | 1664.8 ± 2.2 | –
283.4 K | 1049.19 ± 2.2 | 1663.8 ± 2.2 | –
283.65 K | 1049.02 ± 2.2 | 1663 ± 2.1 | –
283.9 K | 1048.85 ± 2.2 | 1662.1 ± 2.1 | –
284.15 K | 1048.68 ± 2.2 | 1661.2 ± 2.1 | –
284.4 K | 1048.52 ± 2.2 | 1660.3 ± 2.1 | –
284.65 K | 1048.35 ± 2.2 | 1659.4 ± 2.1 | –
284.9 K | 1048.18 ± 2.2 | 1658.5 ± 2.1 | –
285.15 K | 1048.02 ± 2.2 | 1657.7 ± 2.1 | –
285.4 K | 1047.85 ± 2.2 | 1656.8 ± 2.1 | –
285.65 K | 1047.68 ± 2.2 | 1655.9 ± 2.1 | –
285.9 K | 1047.52 ± 2.2 | 1655 ± 2.1 | –
286.15 K | 1047.35 ± 2.2 | 1654.2 ± 2.1 | –
286.4 K | 1047.18 ± 2.2 | 1653.3 ± 2.1 | –
286.65 K | 1047.01 ± 2.2 | 1652.4 ± 2.1 | –
286.9 K | 1046.85 ± 2.2 | 1651.6 ± 2.1 | –
287.15 K | 1046.68 ± 2.2 | 1650.7 ± 2.1 | –
287.4 K | 1046.51 ± 2.2 | 1649.9 ± 2.1 | –
287.65 K | 1046.34 ± 2.2 | 1649 ± 2.1 | –
287.9 K | 1046.17 ± 2.2 | 1648.1 ± 2.1 | –
288.15 K | 1046.01 ± 2.2 | 1647.3 ± 2.1 | 609.15 ± 100
288.4 K | 1045.84 ± 2.2 | 1646.5 ± 2.1 | –
288.65 K | 1045.67 ± 2.2 | 1645.6 ± 2.1 | –
288.9 K | 1045.5 ± 2.2 | 1644.8 ± 2.1 | –
289.15 K | 1045.34 ± 2.2 | 1643.9 ± 2.1 | –
289.4 K | 1045.17 ± 2.2 | 1643 ± 2.1 | –
289.65 K | 1045 ± 2.2 | 1642.2 ± 2.1 | –
289.9 K | 1044.83 ± 2.2 | 1641.4 ± 2.1 | –
290.15 K | 1044.66 ± 2.2 | 1640.5 ± 2.1 | 516.28 ± 82
290.4 K | 1044.5 ± 2.2 | 1639.7 ± 2.1 | –
290.65 K | 1044.33 ± 2.2 | 1638.9 ± 2.1 | –
290.9 K | 1044.16 ± 2.2 | 1638 ± 2.1 | –
291.15 K | 1043.99 ± 2.2 | 1637.2 ± 2.1 | –
291.4 K | 1043.82 ± 2.2 | 1636.3 ± 2.1 | –
291.65 K | 1043.65 ± 2.2 | 1635.5 ± 2.1 | –
291.9 K | 1043.48 ± 2.2 | 1634.7 ± 2.1 | –
292.15 K | 1043.32 ± 2.2 | 1633.9 ± 2.1 | –
292.4 K | 1043.15 ± 2.2 | 1633.1 ± 2.1 | –
292.65 K | 1042.98 ± 2.2 | 1632.3 ± 2.1 | –
292.9 K | 1042.81 ± 2.2 | 1631.5 ± 2.1 | –
293.15 K | 1042.64 ± 2.2 | 1630.6 ± 2.1 | 433.8 ± 64
293.4 K | 1042.47 ± 2.2 | 1629.8 ± 2.1 | –
293.65 K | 1042.3 ± 2.2 | 1629 ± 2.1 | –
293.9 K | 1042.13 ± 2.2 | 1628.2 ± 2.1 | –
294.15 K | 1041.96 ± 2.2 | 1627.4 ± 2.1 | –
294.4 K | 1041.79 ± 2.2 | 1626.6 ± 2.1 | –
294.65 K | 1041.63 ± 2.2 | 1625.7 ± 2.1 | –
294.9 K | 1041.45 ± 2.2 | 1624.9 ± 2.1 | –
295.15 K | 1041.29 ± 2.2 | 1624.1 ± 2.1 | –
295.4 K | 1041.12 ± 2.2 | 1623.3 ± 2.1 | –
295.65 K | 1040.95 ± 2.2 | 1622.5 ± 2.1 | 352.2 ± 47
295.9 K | 1040.78 ± 2.2 | 1621.7 ± 2.1 | –
296.15 K | 1040.61 ± 2.2 | 1620.9 ± 2.1 | –
296.4 K | 1040.44 ± 2.2 | 1620.1 ± 2.1 | –
296.65 K | 1040.27 ± 2.2 | 1619.3 ± 2.1 | –
296.9 K | 1040.1 ± 2.2 | 1618.5 ± 2.1 | –
297.15 K | 1039.93 ± 2.2 | 1617.7 ± 2.1 | –
297.4 K | 1039.76 ± 2.2 | 1617 ± 2.1 | –
297.65 K | 1039.59 ± 2.2 | 1616.1 ± 2.1 | –
297.9 K | 1039.42 ± 2.2 | 1615.3 ± 2.1 | –
298.15 K | 1039.24 ± 2.2 | 1614.5 ± 2.1 | 298.95 ± 37
298.4 K | 1039.08 ± 2.2 | 1613.8 ± 2.1 | –
298.65 K | 1038.9 ± 2.2 | 1613 ± 2.1 | –
298.9 K | 1038.73 ± 2.2 | 1612.2 ± 2.1 | –
299.15 K | 1038.56 ± 2.2 | 1611.4 ± 2.1 | –
299.4 K | 1038.39 ± 2.2 | 1610.6 ± 2.1 | –
299.65 K | 1038.22 ± 2.2 | 1609.8 ± 2.1 | –
299.9 K | 1038.05 ± 2.2 | 1609 ± 2.1 | –
300.15 K | 1037.88 ± 2.2 | 1608.2 ± 2.1 | –
300.4 K | 1037.71 ± 2.2 | 1607.4 ± 2.1 | –
300.65 K | 1037.54 ± 2.2 | 1606.6 ± 2.1 | 256.7 ± 29
300.9 K | 1037.37 ± 2.2 | 1605.8 ± 2.1 | –
301.15 K | 1037.2 ± 2.2 | 1605 ± 2.1 | –
301.4 K | 1037.03 ± 2.2 | 1604.2 ± 2.1 | –
301.65 K | 1036.87 ± 2.2 | 1603.4 ± 2.1 | –
301.9 K | 1036.7 ± 2.2 | 1602.6 ± 2.1 | –
302.15 K | 1036.54 ± 2.2 | 1601.8 ± 2.1 | –
302.4 K | 1036.38 ± 2.2 | 1601 ± 2.1 | –
302.65 K | 1036.2 ± 2.2 | 1600.2 ± 2.1 | –
302.9 K | 1036.04 ± 2.2 | 1599.5 ± 2.1 | –
303.15 K | 1035.87 ± 2.2 | 1598.7 ± 2.1 | 219.16 ± 22
303.4 K | 1035.71 ± 2.2 | 1597.9 ± 2.1 | –
303.65 K | 1035.54 ± 2.2 | 1597.1 ± 2.1 | –
303.9 K | 1035.38 ± 2.2 | 1596.3 ± 2.1 | –
304.15 K | 1035.21 ± 2.2 | 1595.5 ± 2.1 | –
304.4 K | 1035.04 ± 2.2 | 1594.8 ± 2.1 | –
304.65 K | 1034.88 ± 2.2 | 1594 ± 2.1 | –
304.91 K | 1034.71 ± 2.2 | 1593.2 ± 2.1 | –
305.15 K | 1034.54 ± 2.2 | 1592.4 ± 2.1 | –
305.4 K | 1034.38 ± 2.2 | 1591.6 ± 2.1 | –
305.45 K | – | – | 186.26 ± 17
305.65 K | 1034.21 ± 2.2 | 1590.8 ± 2.1 | –
305.9 K | 1034.04 ± 2.2 | 1590.1 ± 2.1 | –
306.15 K | 1033.88 ± 2.2 | 1589.3 ± 2.1 | –
306.4 K | 1033.71 ± 2.2 | 1588.5 ± 2.1 | –
306.65 K | 1033.54 ± 2.2 | 1587.7 ± 2.1 | –
306.9 K | 1033.38 ± 2.2 | 1587 ± 2.1 | –
307.15 K | 1033.2 ± 2.2 | 1586.2 ± 2.1 | –
307.4 K | 1033.04 ± 2.2 | 1585.4 ± 2.1 | –
307.65 K | 1032.87 ± 2.2 | 1584.6 ± 2.1 | –
307.9 K | 1032.7 ± 2.2 | 1583.8 ± 2.1 | –
